US10562887B2, “Triazolones and tetrazolones as inhibitors of ROCK” (BRISTOL-MYERS SQUIBB COMPANY, priority 2016, dated 2020)

These compounds were tested against ROCK2 (Homo sapiens (Human), UniProt O75116) (assay: ROCK2 assay (peptide phosphorylation, LABCHIP 3000 Reader)). Settings: 5 μM ATP, 1.5 μM peptide substrate.
Chain of ROCK2 (O75116 whole entry, species assumed): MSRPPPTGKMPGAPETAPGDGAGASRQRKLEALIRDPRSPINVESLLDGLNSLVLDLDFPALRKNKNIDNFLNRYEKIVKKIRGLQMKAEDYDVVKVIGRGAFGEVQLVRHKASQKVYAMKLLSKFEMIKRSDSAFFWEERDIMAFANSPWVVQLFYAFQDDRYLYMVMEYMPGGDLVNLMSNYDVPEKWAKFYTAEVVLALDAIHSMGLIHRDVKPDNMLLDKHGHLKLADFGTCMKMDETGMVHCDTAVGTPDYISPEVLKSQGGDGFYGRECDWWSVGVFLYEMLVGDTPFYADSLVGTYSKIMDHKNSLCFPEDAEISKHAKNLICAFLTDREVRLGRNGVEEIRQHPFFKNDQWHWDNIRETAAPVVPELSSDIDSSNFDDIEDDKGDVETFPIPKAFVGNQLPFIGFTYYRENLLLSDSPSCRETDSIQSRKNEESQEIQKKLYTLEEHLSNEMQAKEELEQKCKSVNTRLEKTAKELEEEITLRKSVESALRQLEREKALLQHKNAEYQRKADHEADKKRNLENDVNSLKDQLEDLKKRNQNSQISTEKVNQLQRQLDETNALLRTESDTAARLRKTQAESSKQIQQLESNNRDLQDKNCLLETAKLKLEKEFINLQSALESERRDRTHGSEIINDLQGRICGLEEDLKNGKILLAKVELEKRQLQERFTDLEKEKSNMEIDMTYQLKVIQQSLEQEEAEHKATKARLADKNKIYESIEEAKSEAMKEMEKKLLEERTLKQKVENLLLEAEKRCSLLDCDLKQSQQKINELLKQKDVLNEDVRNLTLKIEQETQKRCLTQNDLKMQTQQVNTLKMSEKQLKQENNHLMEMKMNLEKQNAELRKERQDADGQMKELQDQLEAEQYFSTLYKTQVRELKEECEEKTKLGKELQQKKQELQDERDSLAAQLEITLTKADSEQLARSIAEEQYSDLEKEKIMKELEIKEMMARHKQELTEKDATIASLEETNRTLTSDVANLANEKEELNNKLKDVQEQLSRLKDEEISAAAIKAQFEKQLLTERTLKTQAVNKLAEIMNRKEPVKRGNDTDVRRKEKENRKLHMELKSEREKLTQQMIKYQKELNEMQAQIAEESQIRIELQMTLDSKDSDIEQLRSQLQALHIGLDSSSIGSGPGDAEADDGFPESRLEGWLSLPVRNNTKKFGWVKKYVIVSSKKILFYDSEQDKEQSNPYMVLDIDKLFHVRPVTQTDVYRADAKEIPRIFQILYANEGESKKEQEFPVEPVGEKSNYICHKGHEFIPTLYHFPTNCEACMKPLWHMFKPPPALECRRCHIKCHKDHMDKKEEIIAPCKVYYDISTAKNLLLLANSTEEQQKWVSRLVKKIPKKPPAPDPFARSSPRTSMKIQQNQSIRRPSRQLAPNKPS
Format: biochemical
Experimental: The effectiveness of compounds of the present invention as ROCK inhibitors can be determined in a 30 μL, assay containing 20 mM HEPES, pH 7.5, 20 mM MgCl2, 0.015% Brij-35, 4 mM DTT, 5 μM ATP and 1.5 μM peptide substrate (FITC-AHA-AKRRRLSSLRA-OH). Compounds were dissolved in DMSO so that the final concentration of DMSO was <2%, and the reaction was initiated with Rho kinase variants. After incubation, the reaction was terminated by the addition of EDTA and the phosphorylated and non-phosphorylated peptides separated using a LABCHIP® 3000 Reader (Caliper Life Sciences). […] Compounds were tested in dose-response format, and the inhibition of kinase activity was calculated at each concentration of compound. The inhibition data were fit using a curve-fitting program to determine the IC50; i.e., the concentration of compound required to inhibit 50% of kinase activity.
Representative Examples were tested in the ROCK2 assay described above and found having ROCK2 inhibitory activity.
Compound COc1cccc(Cn2nc(C)n(-c3ccc(-c4cn[nH]c4)cc3OC)c2=O)c1 [Example 64, 4-(2-methoxy-4-(1H-pyrazol-4-yl)phenyl)-1-(3-methoxybenzyl)-3-methyl-1H-1,2,4-triazol-5(4H)-one] has an IC50 of 250 to 2000 nM.
For COc1cc(-n2c(C)nn(Cc3cccc(F)c3)c2=O)ccc1-c1cn[nH]c1 [Example 65, 1-(3-fluorobenzyl)-4-(3-methoxy-4-(1H-pyrazol-4-yl)phenyl)-3-methyl-1H-1,2,4-triazol-5(4H)-one], the IC50 was 250 to 2000 nM.
In the case of COc1cc(-n2c(C)nn(CCc3ccccc3)c2=O)ccc1-c1cn[nH]c1 [Example 66, 4-(3-methoxy-4-(1H-pyrazol-4-yl)phenyl)-3-methyl-1-phenethyl-1H-1,2,4-triazol-5(4H)-one], the IC50 is reported as 50 to 250 nM.
Cc1nn(CCc2ccccc2)c(=O)n1-c1ccc(-c2cn[nH]c2)cc1 [Example 67, 4-(4-(1H-pyrazol-4-yl)phenyl)-3-methyl-1-phenethyl-1H-1,2,4-triazol-5(4H)-one] was tested, and the IC50 was 250 to 2000 nM.
With COc1cc(-n2c(C)nn(Cc3cc(F)ccc3F)c2=O)ccc1-c1cn[nH]c1 [Example 68, 1-(2,5-difluorobenzyl)-4-(3-methoxy-4-(1H-pyrazol-4-yl)phenyl)-3-methyl-1H-1,2,4-triazol-5(4H)-one] the IC50 was 250 to 2000 nM.
Compound COc1cccc(Cn2nc(C)n(-c3ccc(-c4cn[nH]c4)cc3)c2=O)c1 [Example 69, 4-(4-(1H-pyrazol-4-yl)phenyl)-1-(3-methoxybenzyl)-3-methyl-1H-1,2,4-triazol-5(4H)-one] has an IC50 of 250 to 2000 nM.
Cc1nn(Cc2cccc(F)c2)c(=O)n1-c1ccc(-c2cn[nH]c2)cc1 [Example 70, 4-(4-(1H-pyrazol-4-yl)phenyl)-1-(3-fluorobenzyl)-3-methyl-1H-1,2,4-triazol-5(4H)-one] was tested, and the IC50 was 250 to 2000 nM.
For Cc1nn(Cc2cc(F)ccc2F)c(=O)n1-c1ccc(-c2cn[nH]c2)cc1 [Example 71, 4-(4-(1H-pyrazol-4-yl)phenyl)-1-(2,5-difluorobenzyl)-3-methyl-1H-1,2,4-triazol-5(4H)-one], the IC50 was 250 to 2000 nM.
COc1cc(F)cc(Cn2nc(C)n(-c3ccc(-c4cn[nH]c4)cc3)c2=O)c1 [Example 72, 4-(4-(1H-pyrazol-4-yl)phenyl)-1-(3-fluoro-5-methoxybenzyl)-3-methyl-1H-1,2,4-triazol-5(4H)-one] gave an IC50 of 250 to 2000 nM.
For Cc1nn(C(C)c2ccccc2)c(=O)n1-c1ccc(-c2cn[nH]c2)cc1 (centres unmarked) [Example 73, 4-(4-(1H-pyrazol-4-yl)phenyl)-3-methyl-1-(1-phenylethyl)-1H-1,2,4-triazol-5(4H)-one], the IC50 was 250 to 2000 nM.
Work on COc1cc(-c2cn[nH]c2)ccc1-n1c(C)nn(Cc2cccc(F)c2)c1=O [Example 74, 1-(3-fluorobenzyl)-4-(2-methoxy-4-(1H-pyrazol-4-yl)phenyl)-3-methyl-1H-1,2,4-triazol-5(4H)-one] yielded an IC50 of 250 to 2000 nM.
Compound COc1cc(-c2cn[nH]c2)ccc1-n1c(C)nn(C(C)c2ccccc2)c1=O (centres unmarked) [Example 75, 4-(2-methoxy-4-(1H-pyrazol-4-yl)phenyl)-3-methyl-1-(1-phenylethyl)-1H-1,2,4-triazol-5(4H)-one] has an IC50 of 250 to 2000 nM.
Compound COc1cc(F)cc(Cn2nc(C)n(-c3ccc(-c4cn[nH]c4)cc3OC)c2=O)c1 [Example 76, 1-(3-fluoro-5-methoxybenzyl)-4-(2-methoxy-4-(1H-pyrazol-4-yl)phenyl)-3-methyl-1H-1,2,4-triazol-5(4H)-one] has an IC50 of 250 to 2000 nM.
With COc1cc(-c2cn[nH]c2)ccc1-n1c(C)nn(CCc2ccccc2)c1=O [Example 77, 4-(2-methoxy-4-(1H-pyrazol-4-yl)phenyl)-3-methyl-1-phenethyl-1H-1,2,4-triazol-5(4H)-one] the IC50 was 250 to 2000 nM.
COc1cc(-c2cn[nH]c2)ccc1-n1c(C)nn(Cc2cc(F)ccc2F)c1=O [Example 78, 1-(2,5-difluorobenzyl)-4-(2-methoxy-4-(1H-pyrazol-4-yl)phenyl)-3-methyl-1H-1,2,4-triazol-5(4H)-one] was tested, and the IC50 was 50 to 250 nM.
For Cc1nn(-c2ccc(-c3cn[nH]c3)cc2)c(=O)n1Cc1ccccc1 [Example 79, 1-(4-(1H-pyrazol-4-yl)phenyl)-4-benzyl-3-methyl-1H-1,2,4-triazol-5(4H)-one], the IC50 was 5 to 50 nM.
With COc1cccc(Cn2c(C)nn(-c3ccc(-c4cn[nH]c4)cc3)c2=O)c1 [Example 80, 1-(4-(1H-pyrazol-4-yl)phenyl)-4-(3-methoxybenzyl)-3-methyl-1H-1,2,4-triazol-5(4H)-one] the IC50 was < 5 nM.
Compound Cc1nn(-c2ccc(-c3cn[nH]c3)cc2)c(=O)n1Cc1cccc(F)c1 [Example 81, 1-(4-(1H-pyrazol-4-yl)phenyl)-4-(3-fluorobenzyl)-3-methyl-1H-1,2,4-triazol-5(4H)-one] has an IC50 of 5 to 50 nM.
Work on Cc1nn(-c2ccc(-c3cn[nH]c3)cc2)c(=O)n1Cc1cc(F)ccc1F [Example 82, 1-(4-(1H-pyrazol-4-yl)phenyl)-4-(2,5-difluorobenzyl)-3-methyl-1H-1,2,4-triazol-5(4H)-one] yielded an IC50 of 5 to 50 nM.
In the case of COc1cc(F)cc(Cn2c(C)nn(-c3ccc(-c4cn[nH]c4)cc3)c2=O)c1 [Example 83, 1-(4-(1H-pyrazol-4-yl)phenyl)-4-(3-fluoro-5-methoxybenzyl)-3-methyl-1H-1,2,4-triazol-5(4H)-one], the IC50 is reported as < 5 nM.
For Cc1nn(-c2ccc(-c3cn[nH]c3)cc2)c(=O)n1C(C)c1ccccc1 (centres unmarked) [Example 84, 1-(4-(1H-pyrazol-4-yl)phenyl)-3-methyl-4-(1-phenylethyl)-1H-1,2,4-triazol-5(4H)-one], the IC50 was 50 to 250 nM.
Compound Cc1nn(-c2ccc(-c3cn[nH]c3)cc2)c(=O)n1CCc1ccccc1 [Example 85, 1-(4-(1H-pyrazol-4-yl)phenyl)-3-methyl-4-phenethyl-1H-1,2,4-triazol-5(4H)-one] has an IC50 of 50 to 250 nM.
Cc1nn(-c2ccc(-c3cn[nH]c3)cc2)c(=O)n1Cc1ccccc1Cl [Example 86, 1-(4-(1H-pyrazol-4-yl)phenyl)-4-(2-chlorobenzyl)-3-methyl-1H-1,2,4-triazol-5(4H)-one] showed an IC50 of 5 to 50 nM.
For Cc1nn(-c2ccc(-c3cn[nH]c3)cc2)c(=O)n1Cc1ccccc1F [Example 87, 2-(4-(1H-pyrazol-4-yl)phenyl)-4-(2-fluorobenzyl)-5-methyl-2,4-dihydro-3H-1,2,4-triazol-3-one], the IC50 was 5 to 50 nM.
With COc1cc(-n2nc(C)n(Cc3ccccc3)c2=O)ccc1-c1cn[nH]c1 [Example 88, 4-benzyl-1-(3-methoxy-4-(1H-pyrazol-4-yl)phenyl)-3-methyl-1H-1,2,4-triazol-5(4H)-one] the IC50 was < 5 nM.
In the case of COc1cccc(Cn2c(C)nn(-c3ccc(-c4cn[nH]c4)c(OC)c3)c2=O)c1 [Example 89, 1-(3-methoxy-4-(1H-pyrazol-4-yl)phenyl)-4-(3-methoxybenzyl)-3-methyl-1H-1,2,4-triazol-5(4H)-one], the IC50 is reported as < 5 nM.
For COc1cc(-n2nc(C)n(Cc3cccc(F)c3)c2=O)ccc1-c1cn[nH]c1 [Example 90, 4-(3-fluorobenzyl)-1-(3-methoxy-4-(1H-pyrazol-4-yl)phenyl)-3-methyl-1H-1,2,4-triazol-5(4H)-one], the IC50 was < 5 nM.
With COc1cc(-n2nc(C)n(Cc3cc(F)ccc3F)c2=O)ccc1-c1cn[nH]c1 [Example 91, 4-(2,5-difluorobenzyl)-1-(3-methoxy-4-(1H-pyrazol-4-yl)phenyl)-3-methyl-1H-1,2,4-triazol-5(4H)-one] the IC50 was 5 to 50 nM.
In the case of COc1cc(F)cc(Cn2c(C)nn(-c3ccc(-c4cn[nH]c4)c(OC)c3)c2=O)c1 [Example 92, 4-(3-fluoro-5-methoxybenzyl)-1-(3-methoxy-4-(1H-pyrazol-4-yl)phenyl)-3-methyl-1H-1,2,4-triazol-5(4H)-one], the IC50 is reported as < 5 nM.
